In patent US20150141340A1, “METHOD OF TREATING AND PREVENTING OCULAR ANGIOGENESIS” (Yale University, priority 2012, published 2015):

How the values were obtained:
[1] = test system: ischemia triggered neovascularization; experiment: Retinopathy of prematurity model (ROP); type: in vivo, mouse; conditions: administration 2 days after switching from hyperoxia to room air; vs AP injected eyes
Description: Next, cavtratin was tested in an additional model of ocular angiogenesis, retinopathy of prematurity model (ROP). Exposure to hyperoxia during early retinal development leads to the arrest or retardation of normal retinal vascular development. When the animals are returned to the normoxic environment, they are under a relative hypoxic situation where the retina now lacks its normal vasculature that is required to adequately support the neural tissue in normoxic conditions. This ischemic situation results in unregulated, abnormal neovascularization. The neovascular response is very consistent, reproducible and quantifiable, and it has become integral model for studying disease mechanisms and potential treatments for ischemic retinopathy. The mouse ROP model has become the most common model for studying pathologic angiogenesis and has been extended to the general study of ischemic retinopathies and related anti-angiogenic treatments. […] Cavtratin induced attenuation of ischemia triggered neovascularization is shown in FIG. 8, where the left panels are representative of two AP injected eyes and right panels are from cavtratin injections.

[2] = test system: choroidal neovascularization (CNV); experiment: Laser-induced choroidal neovascularization (CNV) model, isolectin b4 labeling; type: in vivo, mice
Text: Experiments were designed to examine whether treatment with cavtratin is useful in disease models of excessive ocular angiogenesis. To induce choroidal neovascularization (CNV), a model for retinal angiogenesis in mice, three 532 nm diode laser spots were applied to each fundus of the eye using a coverslip as a contact lens. The lesions were placed between the retinal vessels 2-3 disc diameters from the optic nerve. Formation of a bubble indicates rupture of the Bruch's membrane, a critical factor in driving CNV. Cavtratin was dissolved into acetic acid and diluted into saline. […] After treatment and injury, CNV was visualized by immunofluorescent labeling with isolectin b4, a marker for angiogenic blood vessels. CNV area was quantified as isolectin positive vessels per area measured.
Since mechanistically cavtratin reduces vascular permeability, vascular leakage was examined after CNV damage.
Further, it was examined whether the effects of cavtratin treatment synergizes with anti-VEGF. Mice were injected with either cavtratin (0.05 nmol) one day prior to laser damage, anti-VEGF (5 μg) 2 days after damage, or were treated with both cavtratin and anti-VEGF.

cavtratin: fusion peptide comprising an antennapedia homeodomain internalization sequence fused to a caveolin-1 scaffolding domain; SEQ ID NO: 13 (RQIKIWFQNRRMKWKKDGIWKASFTTFTVTKYWFYR; Antennapedia-caveolin-1 scaffolding domain fusion peptide)
ischemia triggered neovascularization [1]: attenuation of extensive, ischemia triggered neovascualization | CNV area (isolectin positive vessels per area measured) ([2]; 0.5 nmol intraocular (1 microliter) prior to laser damage and again 2 days after, sacrificed after 4 additional days, vs AP control, N=17-18 eyes, P<0.05): reduced CNV | CNV, dose dependence ([2]; anti-VEGF administration as comparator (FIG. 3, FIG. 4), reduced to a level comparable to anti-VEGF): dose-dependently reduces CNV
